Data as given in patent US20100216779A1 (GLAXOSMITHKLINE LLC, priority 2007, published 2010).

Columns and labels:
Type in all cases: cell-based
[1] = tested on: NCI-H929 (multiple myeloma); experiment: Inhibition of cell proliferation, CellTiter-Glo, NCI-H929; conditions: Homo sapiens, 72 h
Description: C. Inhibition of Cell Proliferation
Cell proliferation was measured by either CellTiter-Glo (measures cellular ATP level as a surrogate for total cell number) or by InCell analyzer (counts number of nuclei as a measure of cell number). For CellTiter-Glo assay, exponentially growing cell lines of different tumor origins, cultured in appropriate media containing 10% fetal bovine serum at 37° C. in a 5% CO2 incubator, were plated at low density (less than 2000 cells/well) in 96-well plates. Twenty four hours post-plating, cells were treated with different concentrations of test compounds ranging from 30 uM to 1.5 nM. Several wells were left untreated as a control. Seventy two hours post-treatment, cell numbers were determined using 50-100 ul per well of CellTiter-Glo (Promega #G7573). Plates were incubated at 37° C. for 30 minutes and the chemiluminescent signal was read on the Victor V or Envison 2100 reader. […]

[2] = target: T1, IR (NIH-3T3 cells over expressing human IGF-1R or IR) (Homo sapiens, UniProt P06213); experiment: IR cellular autophosphorylation (DELFIA); conditions: NIH-3T3 cells over expressing IR, insulin stimulated
T1 construct: expressed in transfected cells; host or cells: NIH-3T3 (mouse fibroblasts)
How it was run: (§1)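 Receptor-overexpressing NIH-3T3, 10% FBS, 37 °C; cpd 30 uM–1.5 nM × 2 h; stim IGF-1 30 ng/mL (IGF-1R) or insulin 3 ug/mL (IR), 15 min; lysate DELFIA, Eu anti-pTyr; % of stimulated signal.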

COLO205 (colon) = experiment: Inhibition of cell proliferation, CellTiter-Glo, COLO205; conditions: Homo sapiens, COLO 205, 72 h
How it was run: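 Exponentially growing COLO205 cells in medium with 10% FBS were plated below 2000 cells/well at 37 °C, 5% CO2. Untreated wells served as controls.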

[3] = target: T2, human IGF-1R (NIH-3T3 cells over expressing human IGF-1R) (Homo sapiens, UniProt P08069); experiment: IGF-1R cellular autophosphorylation (DELFIA); conditions: IGF-1 stimulated
T2 construct: expressed in transfected cells; host or cells: NIH-3T3 (mouse fibroblasts)
How it was run: as §1

T1 sequence (P06213 28-1382): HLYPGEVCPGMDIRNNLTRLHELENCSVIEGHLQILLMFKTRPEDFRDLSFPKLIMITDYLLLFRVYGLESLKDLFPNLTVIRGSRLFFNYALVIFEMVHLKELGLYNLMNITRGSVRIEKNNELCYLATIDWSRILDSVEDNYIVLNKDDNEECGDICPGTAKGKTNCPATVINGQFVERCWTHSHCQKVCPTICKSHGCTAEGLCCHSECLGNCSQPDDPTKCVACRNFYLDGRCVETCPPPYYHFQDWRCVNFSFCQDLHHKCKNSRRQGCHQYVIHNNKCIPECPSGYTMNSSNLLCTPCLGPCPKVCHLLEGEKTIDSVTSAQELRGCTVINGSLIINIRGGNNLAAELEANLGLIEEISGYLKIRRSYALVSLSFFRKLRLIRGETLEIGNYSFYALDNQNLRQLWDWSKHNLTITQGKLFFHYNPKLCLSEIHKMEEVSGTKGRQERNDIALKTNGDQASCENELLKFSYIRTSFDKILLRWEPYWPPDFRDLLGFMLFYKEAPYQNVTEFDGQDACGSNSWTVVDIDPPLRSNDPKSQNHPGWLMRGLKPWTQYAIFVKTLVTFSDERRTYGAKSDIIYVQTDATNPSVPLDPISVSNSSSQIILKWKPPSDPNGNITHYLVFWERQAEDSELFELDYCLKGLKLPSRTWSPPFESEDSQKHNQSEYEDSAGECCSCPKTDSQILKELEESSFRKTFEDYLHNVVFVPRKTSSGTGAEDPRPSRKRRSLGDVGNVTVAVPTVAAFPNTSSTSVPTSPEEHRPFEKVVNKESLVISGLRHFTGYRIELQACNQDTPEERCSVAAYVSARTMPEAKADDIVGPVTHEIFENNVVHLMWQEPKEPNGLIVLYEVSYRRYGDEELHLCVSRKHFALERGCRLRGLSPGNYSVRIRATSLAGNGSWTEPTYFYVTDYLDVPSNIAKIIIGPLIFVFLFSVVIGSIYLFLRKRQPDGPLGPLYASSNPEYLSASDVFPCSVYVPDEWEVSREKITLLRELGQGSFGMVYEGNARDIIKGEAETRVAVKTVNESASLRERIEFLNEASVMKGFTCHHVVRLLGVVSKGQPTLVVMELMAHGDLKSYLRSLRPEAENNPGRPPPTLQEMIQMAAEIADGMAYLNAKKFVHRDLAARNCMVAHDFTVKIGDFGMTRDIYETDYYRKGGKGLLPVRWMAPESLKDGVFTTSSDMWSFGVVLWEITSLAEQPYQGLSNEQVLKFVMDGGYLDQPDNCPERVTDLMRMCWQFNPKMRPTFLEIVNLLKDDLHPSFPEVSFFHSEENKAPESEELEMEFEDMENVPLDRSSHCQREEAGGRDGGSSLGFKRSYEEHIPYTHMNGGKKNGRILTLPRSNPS
T2 sequence (P08069 31-1367): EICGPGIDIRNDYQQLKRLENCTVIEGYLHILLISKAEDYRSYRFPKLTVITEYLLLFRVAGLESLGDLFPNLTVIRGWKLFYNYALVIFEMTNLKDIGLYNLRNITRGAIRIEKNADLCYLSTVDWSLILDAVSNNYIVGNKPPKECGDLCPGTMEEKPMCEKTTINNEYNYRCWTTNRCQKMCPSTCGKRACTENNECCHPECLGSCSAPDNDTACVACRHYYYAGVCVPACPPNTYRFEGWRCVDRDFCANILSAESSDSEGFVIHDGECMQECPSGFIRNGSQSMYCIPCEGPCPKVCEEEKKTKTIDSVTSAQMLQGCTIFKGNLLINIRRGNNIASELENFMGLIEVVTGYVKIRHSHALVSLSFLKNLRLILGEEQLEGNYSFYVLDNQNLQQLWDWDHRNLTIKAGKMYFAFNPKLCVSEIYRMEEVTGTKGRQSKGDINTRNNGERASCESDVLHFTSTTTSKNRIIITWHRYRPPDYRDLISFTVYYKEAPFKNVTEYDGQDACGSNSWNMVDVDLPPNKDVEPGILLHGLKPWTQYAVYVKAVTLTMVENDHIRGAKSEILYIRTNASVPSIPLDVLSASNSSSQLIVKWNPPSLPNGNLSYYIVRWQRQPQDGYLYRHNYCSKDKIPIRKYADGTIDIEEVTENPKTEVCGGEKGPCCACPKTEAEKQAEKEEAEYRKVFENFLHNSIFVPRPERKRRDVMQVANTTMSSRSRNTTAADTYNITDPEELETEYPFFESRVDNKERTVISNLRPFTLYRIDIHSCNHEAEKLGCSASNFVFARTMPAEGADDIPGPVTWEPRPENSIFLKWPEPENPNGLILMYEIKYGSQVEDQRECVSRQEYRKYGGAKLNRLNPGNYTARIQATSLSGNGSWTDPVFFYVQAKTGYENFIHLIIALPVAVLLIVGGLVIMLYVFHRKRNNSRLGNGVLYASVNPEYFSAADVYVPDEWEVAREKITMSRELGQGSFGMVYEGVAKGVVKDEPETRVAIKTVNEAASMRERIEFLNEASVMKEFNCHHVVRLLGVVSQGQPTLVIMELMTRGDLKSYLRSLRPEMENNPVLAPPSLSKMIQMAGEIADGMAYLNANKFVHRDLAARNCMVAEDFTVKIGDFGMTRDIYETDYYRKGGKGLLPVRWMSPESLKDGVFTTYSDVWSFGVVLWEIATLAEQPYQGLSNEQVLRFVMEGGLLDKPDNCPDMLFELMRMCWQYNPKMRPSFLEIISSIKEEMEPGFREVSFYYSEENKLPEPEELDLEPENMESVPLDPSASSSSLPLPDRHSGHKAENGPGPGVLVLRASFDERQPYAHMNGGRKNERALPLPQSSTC

SMILES | IC50 [1] [nM] | IC50 [2] [nM] | IC50 (COLO205 (colon)) [nM] | IC50 [3] [nM]
COc1cc(N2CCC(N3CCCCC3)CC2)ccc1Nc1nccc(-c2c(-c3cccc(C(=O)Nc4c(F)cccc4F)c3)nc3cc(F)ccn23)n1 [Example 195, 3-[3-(2-{[4-(1,4′-bipiperidin-1′-yl)-2-(methyloxy)phenyl]amino}-4-pyrimidinyl)-7-fluoroimidazo[1,2-a]pyridin-2-yl]-N-(2,6-difluorophenyl)benzamide] | 250 to 1000 | < 100 | 250 to 1000 | < 100
CCOc1ccc(-c2nc3ccccn3c2-c2ccnc(Nc3ccc(N4CCC(N5CCN(CCF)CC5)CC4)cc3OC)n2)cc1C(=O)Nc1c(F)cccc1F [Example 63, N-(2,6-difluorophenyl)-2-(ethyloxy)-5-[3-(2-{[4-{4-[4-(2-fluoroethyl)-1-piperazinyl]-1-piperidinyl}-2-(methyloxy)phenyl]amino}-4-pyrimidinyl)imidazo[1,2-a]pyridin-2-yl]benzamide] | < 250 | < 100 | 250 to 1000 | < 100
CCOc1cc(N2CCC(N3CCN(S(C)(=O)=O)CC3)CC2)ccc1Nc1nccc(-c2c(-c3ccc(OC)c(C(=O)Nc4c(F)cccc4F)c3)nc3ccccn23)n1 [Example 223, N-(2,6-difluorophenyl)-5-(3-{2-[(2-(ethyloxy)-4-{4-[4-(methylsulfonyl)-1-piperazinyl]-1-piperidinyl}phenyl)amino]-4-pyrimidinyl}imidazo[1,2-a]pyridin-2-yl)-2-(methyloxy)benzamide] | < 250 | < 100 | < 250 | < 100
CCOc1cc(N2CCN(C(C)C)CC2)ccc1Nc1nccc(-c2c(-c3ccc(OC)c(C(=O)Nc4c(F)cccc4F)c3)nc3ccccn23)n1 [Example 172, N-(2,6-difluorophenyl)-5-{3-[2-({2-(ethyloxy)-4-[4-(1-methylethyl)-1-piperazinyl]phenyl}-amino)-4-pyrimidinyl]imidazo[1,2-a]pyridin-2-yl}-2-(methyloxy)benzamide] | < 250 | < 100 | 250 to 1000 | < 100
COc1cc(N2CCC(N3CCN(S(C)(=O)=O)CC3)CC2)c(C)cc1Nc1nccc(-c2c(-c3ccc(OC)c(C(=O)Nc4c(F)cccc4F)c3)nc3ccccn23)n1 [Example 236, N-(2,6-difluorophenyl)-5-(3-{2-[(5-methyl-2-(methyloxy)-4-{4-[4-(methylsulfonyl)-1-piperazinyl]-1-piperidinyl}phenyl)amino]-4-pyrimidinyl}imidazo[1,2-a]pyridin-2-yl)-2-(methyloxy)benzamide] | < 250 | < 100 | < 250 | < 100
COc1cc(N2CCC(C3CCN(CCF)CC3)CC2)ccc1Nc1nccc(-c2c(-c3ccc(OC)c(C(=O)Nc4c(F)cccc4F)c3)nc3ccccn23)n1 [Example 96, N-(2,6-difluorophenyl)-5-[3-(2-{[4-[1′-(2-fluoroethyl)-4,4′-bipiperidin-1-yl]-2-(methyloxy)phenyl]amino}-4-pyrimidinyl)imidazo[1,2-a]pyridin-2-yl]-2-(methyloxy)benzamide] | 250 to 1000 | < 100 | > 1000 | < 100
COc1cc(N2CCN3CCOC[C@@H]3C2)ccc1Nc1nccc(-c2c(-c3cccc(C(=O)Nc4c(F)cccc4F)c3)nc3ccccn23)n1 [Example 123] | 250 to 1000 | < 100 | 250 to 1000 | 100 to 500
CCCc1cc(C2CCN(CCS(C)(=O)=O)CC2)ccc1Nc1nccc(-c2c(-c3ccc(OC)c(C(=O)Nc4c(F)cccc4F)c3)nc3ccccn23)n1 [Example 167, N-(2,6-difluorophenyl)-2-(methyloxy)-5-(3-{2-[(4-{1-[2-(methylsulfonyl)ethyl]-4-piperidinyl}-2-propylphenyl)amino]-4-pyrimidinyl}imidazo[1,2-a]pyridin-2-yl)benzamide] | > 1000 | < 100 | > 1000 | < 100
COc1cc(N2CCC(N3CCC(CCS(C)(=O)=O)CC3)CC2)ccc1Nc1nccc(-c2c(-c3ccc(OC)c(C(=O)Nc4c(F)cccc4F)c3)nc3ccccn23)n1 [Example 102, N-(2,6-difluorophenyl)-2-(methyloxy)-5-(3-{2-[(2-(methyloxy)-4-{4-[2-(methylsulfonyl)ethyl]-1,4′-bipiperidin-1′-yl}phenyl)amino]-4-pyrimidinyl}imidazo[1,2-a]pyridin-2-yl)benzamide] | < 250 | < 100 | 250 to 1000 | < 100
COc1cc(N2CCC(N3CCN(CCS(C)(=O)=O)CC3)CC2)ccc1Nc1nccc(-c2c(-c3ccc(OC)c(C(=O)Nc4c(F)cccc4F)c3)nc3ccccn23)n1 [Example 65, N-(2,6-difluorophenyl)-2-(methyloxy)-5-[3-(2-{[2-(methyloxy)-4-(4-{4-[2-(methylsulfonyl)-ethyl]-1-piperazinyl}-1-piperidinyl)phenyl]amino}-4-pyrimidinyl)imidazo-[1,2-a]pyridin-2-yl]benzamide] | < 250 | < 100 | 250 to 1000 | < 100
CCCN1CCN(c2ccc(Nc3nccc(-c4c(-c5cccc(C(=O)Nc6c(F)cccc6F)c5)nc5ccccn45)n3)c(OCC)c2)CC1 [Example 153, N-(2,6-difluorophenyl)-3-[3-(2-{[2-(ethyloxy)-4-(4-propyl-1-piperazinyl)phenyl]amino}-4-pyrimidinyl)imidazo[1,2-a]pyridin-2-yl]benzamide] | 250 to 1000 | < 100 | 250 to 1000 | 100 to 500
CCCN1CCC(c2ccc(Nc3nccc(-c4c(-c5ccc(OC)c(C(=O)Nc6c(F)cccc6F)c5)nc5ccccn45)n3)c(OCC)c2)CC1 [Example 154, N-(2,6-difluorophenyl)-5-[3-(2-{[2-(ethyloxy)-4-(1-propyl-4-piperidinyl)phenyl]amino}-4-pyrimidinyl)imidazo[1,2-a]pyridin-2-yl]-2-(methyloxy)benzamide] | < 250 | < 100 | 250 to 1000 | < 100
COc1cc(N2CCN(CCS(C)(=O)=O)CC2)c(C)cc1Nc1nccc(-c2c(-c3cccc(C(=O)Nc4c(F)cccc4F)c3)nc3ccccn23)n1 [Example 148, N-(2,6-difluorophenyl)-3-(3-{2-[(5-methyl-2-(methyloxy)-4-{4-[2-(methylsulfonyl)ethyl]-1-piperazinyl}phenyl)amino]-4-pyrimidinyl}imidazo[1,2-a]pyridin-2-yl)benzamide] | < 250 | < 100 | < 250 | < 100
CCOc1ccc(-c2nc3ccccn3c2-c2ccnc(Nc3ccc(C4CCN(CC(C)C)CC4)cc3OC)n2)cc1C(=O)Nc1c(F)cccc1F [Example 161, N-(2,6-difluorophenyl)-2-(ethyloxy)-5-{3-[2-({2-(methyloxy)-4-[1-(2-methylpropyl)-4-piperidinyl]phenyl}amino)-4-pyrimidinyl]imidazo[1,2-a]pyridin-2-yl}benzamide] | < 250 | < 100 | 250 to 1000 | < 100
COc1cc(N2CCC(N3CCC(F)CC3)CC2)ccc1Nc1nccc(-c2c(-c3cccc(C(=O)Nc4c(F)cccc4F)c3)nc3ccccn23)n1 [Example 51, N-(2,6-difluorophenyl)-3-[3-(2-{[4-(4-fluoro-1,4′-bipiperidin-1′-yl)-2-(methyloxy)phenyl]amino}-4-pyrimidinyl)imidazo[1,2-a]pyridin-2-yl]benzamide] | 250 to 1000 | 100 to 500 | 250 to 1000 | < 100
CCCN1CCC(c2cc(OC)c(Nc3nccc(-c4c(-c5cccc(C(=O)Nc6c(F)cccc6F)c5)nc5ccccn45)n3)cc2C)CC1 [Example 159, N-(2,6-difluorophenyl)-3-[3-(2-{[5-methyl-2-(methyloxy)-4-(1-propyl-4-piperidinyl)phenyl]amino}-4-pyrimidinyl)imidazo[1,2-a]pyridin-2-yl]benzamide] | < 250 | < 100 | 250 to 1000 | < 100
COc1cc(N2CCC(C3CCN(CCS(C)(=O)=O)CC3)CC2)ccc1Nc1nccc(-c2c(-c3cccc(C(=O)Nc4c(F)cccc4F)c3)nc3ccccn23)n1 [Example 97, N-(2,6-difluorophenyl)-3-(3-{2-[(2-(methyloxy)-4-{1′-[2-(methylsulfonyl)ethyl]-4,4′-bipiperidin-1-yl}phenyl)amino]-4-pyrimidinyl}imidazo[1,2-a]pyridin-2-yl)benzamide] | 250 to 1000 | < 100 | 250 to 1000 | < 100
